Measurements as given in the NIST ThermoML archive (doi:10.1016/j.jct.2006.06.008).

Test: xn = mol fraction of the nth substance listed
Conditions: 101 kPa, Liquid

C1CCCCC1 [cyclohexane] + CCCO
Conditions | mass density, 293.15 K [kg/m3] | mass density, 298.15 K [kg/m3] | mass density, 303.15 K [kg/m3] | speed of sound, 293.15 K [m/s] | speed of sound, 298.15 K [m/s] | speed of sound, 303.15 K [m/s] | viscosity, 293.15 K [mPa·s] | viscosity, 298.15 K [mPa·s] | viscosity, 303.15 K [mPa·s]
x1 = 0.0487 | 801.17 | 797.11 | 793.02 | 1222 | 1205 | 1187 | 2.079 | 1.842 | 1.645
x1 = 0.0993 | 798.82 | 794.71 | 790.56 | 1222 | 1204 | 1186 | 1.958 | 1.74 | 1.552
x1 = 0.1967 | 794.76 | 790.54 | 786.28 | 1223 | 1204 | 1185 | 1.735 | 1.544 | 1.379
x1 = 0.2993 | 791.11 | 786.78 | 782.41 | 1225 | 1205 | 1185 | 1.544 | 1.38 | 1.234
x1 = 0.4017 | 787.98 | 783.54 | 779.05 | 1228 | 1207 | 1186 | 1.391 | 1.249 | 1.124
x1 = 0.5071 | 785.25 | 780.71 | 776.12 | 1233 | 1211 | 1189 | 1.253 | 1.126 | 1.015
x1 = 0.6048 | 783.08 | 778.47 | 773.8 | 1238 | 1215 | 1193 | 1.135 | 1.026 | 0.937
x1 = 0.7036 | 781.23 | 776.55 | 771.82 | 1244 | 1221 | 1198 | 1.036 | 0.941 | 0.858
x1 = 0.8062 | 779.66 | 774.94 | 770.17 | 1252 | 1228 | 1204 | 0.98 | 0.895 | 0.822
x1 = 0.9053 | 778.68 | 773.93 | 769.14 | 1262 | 1237 | 1213 | 0.972 | 0.887 | 0.816
x1 = 0.9522 | 778.41 | 773.66 | 768.87 | 1268 | 1243 | 1219 | 0.969 | 0.892 | 0.81
x1 = 1 | 778.62 | 773.92 | 769.19 | 1279 | 1254 | 1230 | 0.968 | 0.887 | 0.816

C1CCCC1 [cyclopentane] + CCCCO
Conditions | mass density, 293.15 K [kg/m3] | mass density, 298.15 K [kg/m3] | mass density, 303.15 K [kg/m3] | speed of sound, 293.15 K [m/s] | speed of sound, 298.15 K [m/s] | speed of sound, 303.15 K [m/s] | viscosity, 293.15 K [mPa·s] | viscosity, 298.15 K [mPa·s] | viscosity, 303.15 K [mPa·s]
x1 = 0.0446 | – | 802.7 | 798.9 | – | 1236 | 1218 | – | 2.388 | 2.108
x1 = 0.046 | 806.62 | – | – | 1252 | – | – | 2.714 | – | –
x1 = 0.0914 | 803.7 | – | – | 1248 | – | – | 2.541 | – | –
x1 = 0.0995 | – | 798.99 | 795.01 | – | 1229 | 1211 | – | 2.168 | 1.92
x1 = 0.1924 | 796.71 | 792.62 | 788.49 | 1239 | 1220 | 1201 | 2.095 | 1.855 | 1.651
x1 = 0.294 | 789.84 | – | – | 1230 | – | – | 1.683 | – | –
x1 = 0.312 | – | 784.43 | 780.13 | – | 1209 | 1189 | – | 1.499 | 1.349
x1 = 0.3875 | – | 779.26 | 774.85 | – | 1203 | 1182 | – | 1.233 | 1.108
x1 = 0.398 | 782.75 | – | – | 1223 | – | – | 1.358 | – | –
x1 = 0.5104 | – | 770.8 | 766.2 | – | 1194 | 1172 | – | 0.945 | 0.865
x1 = 0.5211 | 774.4 | – | – | 1215 | – | – | 1.014 | – | –
x1 = 0.6157 | – | 763.63 | 758.89 | – | 1189 | 1166 | – | 0.748 | 0.689
x1 = 0.6208 | 767.72 | – | – | 1211 | – | – | 0.807 | – | –
x1 = 0.7182 | 761.29 | – | – | 1209 | – | – | 0.654 | – | –
x1 = 0.7372 | – | 755.6 | 750.73 | – | 1186 | 1162 | – | 0.588 | 0.547
x1 = 0.8124 | 755.51 | – | – | 1210 | – | – | 0.555 | – | –
x1 = 0.8361 | – | 749.32 | 744.36 | – | 1187 | 1163 | – | 0.498 | 0.472
x1 = 0.9032 | – | 745.24 | 740.23 | – | 1191 | 1166 | – | 0.457 | 0.431
x1 = 0.9141 | 749.28 | – | – | 1216 | – | – | 0.48 | – | –
x1 = 0.9502 | – | 742.52 | 737.48 | – | 1195 | 1170 | – | 0.432 | 0.409
x1 = 0.9551 | 746.78 | – | – | 1220 | – | – | 0.456 | – | –
x1 = 1 | 744.52 | 739.55 | 734.54 | 1232 | 1206 | 1180 | 0.439 | 0.416 | 0.394
